{
  "source": "patent US20160129005A1",
  "about": "“ADENINE DERIVATIVES HAVING IMMUNOMODULATING ANTI-INFLAMMATORY AND ANALGESIC ACTIVITY” (MEDESTEA RESEARCH & PRODUCTION S.p.A., priority 2011, published 2016)",
  "key": {"U937 cells": {"system": "U937 cells", "assay": "Production of VEGF in supernatant of U937 culture", "format": "cell-based, human", "conditions": "FIG. 2", "experimental": "The inhibitory action of […] on the production of VEGF in the supernatant of U937 in culture was also evaluated."}, "Dark Agouti (DA) rats": {"system": "Dark Agouti (DA) rats", "assay": "Chronic experimental autoimmune encephalomyelitis (MOG)", "format": "in vivo, rat", "conditions": "1 mg/kg per os daily from day of inoculation, to day 50; dose-dependent; FIG. 43", "experimental": "We investigated whether treatment with […], at the onset of EAE induced by immunization with MOG (myelin-oligodendrocyte-glycoprotein), stimulates histologic protection and functional recovery.\nThe motor and sensory deficits were classified according to the previously assigned “neuronal” clinical scores.\nChronic EAE was induced in 60 female adult Dark Agouti (DA) rats of 120-170 g, immunizing the animals with an intradermal injection, at the base of the tail, of […] of recombinant protein MOG1-125 in emulsified PBS in complete Freund adjuvant (CFA) containing hot-inactivated M. tuberculosis.\nThe rats were divided into 3 groups of 20 animals each and were treated with daily administrations of vehicle or […] 0.1 or 1 mg/kg per os, starting from the day of inoculation.\nThe neurological scores were measured and evaluated daily for the first thirty days, and thereafter only on weekdays (Monday-Friday) until the end of the study (day 50).\nThe range of neuroclinical scores begins at 0 (absence of neurologic symptoms) and ends with a score of 5 (complete paralysis of all legs or animal moribund)."}, "Male Sprague-Dawley rats": {"system": "Male Sprague-Dawley rats", "assay": "Neuropathic pain: SNI model (lesion of the sciatic nerve)", "format": "in vivo, rat", "excerpt": "We evaluated the effect of […] in a model of neuropathic pain: the model of lesion of the sciatic nerve. The characteristic feature of neuropathic pain is that both macroglia and microglia (the cells that support the neurons metabolically) can alter their phenotype (reactive gliosis) as a result of some traumatic-inflammatory peripheral events, duplicated in this model. These phenotypic and functional changes can become permanent and the perception of pain can continue even after its primary cause has disappeared. The cells react to the positive lesion by increasing the glial fibrillary acidic protein (GFAP) and the ionized calcium-binding adapter molecule (IBA1). Male Sprague-Dawley rats (250-300 g; Harlan, Italy) were divided into 5 groups.\nGroup I was treated with […] daily from day 1 to day 21; group II was treated daily with the drug from day 1 to day 7 and then again with a single dose on day 14; group III was treated with […] on day 1, day 7 and day 14; group IV was treated with only the vehicle and group V was submitted to a sham operation ([…]). […]\nBehavioural tests were performed daily from day 0 to day 7 and then on alternate days until day 28. Mechanical allodynia was induced by von Frey filament stimulation and the onset of thermal hyperalgesia was measured using the Ugo Basile apparatus according to Hargreaves' method, 1988."}, "DBA/1J mice": {"system": "DBA/1J mice", "assay": "Rheumatoid arthritis: type II collagen immunization", "format": "in vivo, mouse", "experimental": "Rheumatoid arthritis (RA) is a chronic inflammatory disease that affects the joints in particular and is manifested by pain, stiffness and synovitis, which lead to destruction of the joint. Immunization of DBA/1J mice with type II collagen (CII) by intradermal injection, at the base of the tail, of 0.2 ml of an emulsion containing 2 mg/ml of bovine CII in complete Freund adjuvant induces T cells and autoantibodies specific to CII with clinical and histopathological signs that reproduce RA. Eighteen to twenty days after immunization, signs of inflammation appear, affecting one or more joints. At the first clinical signs of inflammation (inflammation of the digits and joints) with a score above 1.5 (Camps et al., 2005), we treated the animals with […] intraperitoneally (0.25 mg).\nTo establish the degree of infiltration of T cells in the arthritic lesions, sections fixed in formalin and embedded in paraffin were incubated with rabbit polyclonal anti-CD3 antibodies. After detection with peroxidase-labelled secondary antibodies, each sample was evaluated at 40× magnification and 3 immunoreactive “hot spots” were selected for counting the CD3^+ lymphocytes at 200× magnification."}, "female NZB/NZW F1 mice": {"system": "female NZB/NZW F1 mice", "assay": "Systemic lupus erythematosus model", "format": "in vivo, mouse", "experimental": "Systemic lupus erythematosus (SLE) is a chronic autoimmune disease that generally begins with arthritis or arthralgia. Haematuria or proteinuria may be the only renal symptom, however, lupus glomerulonephritis may lead to acute or terminal renal failure. An experimental model of SLE consists of female F1 mice derived from crossing of the NZB strain with NZW. To evaluate the possible effect of […] in SLE, we treated female NZB/NZW F1 mice with 0.25 mg of […] or carrier 5 days a week for six weeks, starting the treatment when the mice had developed anti-DNA antibodies."}, "C57BL/6 WT mice": {"system": "C57BL/6 WT mice", "assay": "Allergic contact dermatitis (TNCB sensitization, ear thickness)", "format": "in vivo, mouse", "conditions": "2 mg/kg injected locally in the auricle 4 hours before stimulus; FIG. 36", "experimental": "C57BL/6 WT mice are sensitized by applying, on day 0, 100 μl of 3% TNCB (2,4,6-trinitrochlorobenzene) in acetone, or only acetone as control, on the skin of the abdomen.\nAs stress, 20 μl of 1% TNCB is applied on the skin of the back of both ears on day 5. This stress causes an allergic reaction that is manifested as swelling and reddening. The thickness of the ear (symptom of swelling) is measured 24 hours after application of the stimulus, using callipers (Mitutoyo). […] was injected locally in the auricle at a dose of 2 mg/kg 4 hours before the […] stimulus."}, "murine neuroblastoma": {"system": "murine neuroblastoma", "conditions": "tissue cultures; Mirkin et al., Cancer Research 47, 1987; cited from earlier work"}, "[1]": {"conditions": "60 days from the end of treatment"}},
  "data": [
    {"compound": "C=C(C=O)OC(C=O)n1cnc2c(N)ncnc21", "note": "(stereo not shown) [2-[1-(6-aminopurin-9-yl)-2-oxoethoxy]prop-2-enal]", "values": [
      {"measurement": "cellular production of VEGF", "setting": "U937 cells", "value": "reduced the cellular production of VEGF significantly"},
      {"measurement": "neurological scores", "setting": "Dark Agouti (DA) rats", "value": "remained lower throughout the period of observation"},
      {"measurement": "pain (mechanical allodynia, thermal hyperalgesia)", "setting": "Male Sprague-Dawley rats; 6 mg/kg and 30 mg/kg i.p., from first day until 7 days after end of treatment, FIGS. 10-15", "value": "reduces pain significantly"},
      {"measurement": "expression of the proteins of reactive gliosis Ibal and GFAP (immunohistochemical analysis)", "setting": "Male Sprague-Dawley rats; animals treated daily", "value": "returns almost to the normal levels"},
      {"measurement": "cartilage erosion (content of proteoglycans)", "setting": "DBA/1J mice; 0.25 mg i.p., FIG. 29A", "value": "significant reduction in cartilage erosion"},
      {"measurement": "CD3+ lymphocytes infiltrating the joint", "setting": "DBA/1J mice; 0.25 mg i.p., FIG. 29B", "value": "significant reduction in CD3+ lymphocytes"},
      {"measurement": "clinical score", "setting": "DBA/1J mice; 0.25 mg intraperitoneally, from score above 1.5, vs carrier, FIG. 29C", "value": "significant reduction in the clinical score"},
      {"measurement": "proteinuria", "setting": "female NZB/NZW F1 mice; 0.25 mg 5 days a week for six weeks, two months following the treatment", "value": "did not appear"},
      {"measurement": "deposition of immune complexes (histopathological score)", "setting": "female NZB/NZW F1 mice; [1]", "value": "significant decrease"},
      {"measurement": "glomerular proliferation (histopathological score)", "setting": "female NZB/NZW F1 mice; [1]", "value": "significant decrease"},
      {"measurement": "lymphocyte infiltration (histopathological score)", "setting": "female NZB/NZW F1 mice; [1]", "value": "significant decrease"},
      {"measurement": "allergic reaction (thickness of the ear)", "setting": "C57BL/6 WT mice", "value": "able to inhibit the allergic reaction"},
      {"measurement": "cytotoxic activity", "setting": "murine neuroblastoma", "value": "cytotoxic activity"}
    ]}
  ]
}
